Laboratory results from PubChem BioAssay AID1963971 (Molecular Pharmacology Branch, DTP, NCI, 2024).

System: 953936-095-R-J2-PDC spheroids with HUVEC/MSC, viability
Experiment: Anticancer human tumor 953936-095-R-J2-PDC patient-derived cervical squamous cell carcinoma cell line growth inhibition [PI3K]
Settings: for IC50: curve of first compound; for viability, T/C: stronger effect = lower value
In short: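 Three cell types, namely tumor cells, endothelial cells and mesenchymal stem cells, formed each spheroid. Combinations with four PI3K inhibitors were screened at clinically achievable concentrations decreasing by half-log, and spheroid viability was recorded.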
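Note: spheroids exposed to compounds for seven days before read-out.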

## Cn1cnc2c(F)c(Nc3ccc(Br)cc3Cl)c(C(=O)NOCCO)cc21 + COc1c(OCCCN2CCOCC2)ccc2c3n(c(=NC(=O)c4cnc(N)nc4)nc12)CCN3
Second compound 0.00316 µM
  IC50: 0.37 µM
Second compound 0.01 µM
  IC50: 0.081 µM
Second compound 0.0316 µM
  IC50: < 0.00949 µM
Second compound 0.1 µM
  IC50: < 0.00949 µM
Second compound 0.316 µM
  IC50: < 0.00949 µM
Second compound 1 µM
  IC50: < 0.00949 µM
Second compound 0.00316 µM, first compound 0.00949 µM
  viability, T/C: 65.8%
Second compound 0.00316 µM, first compound 0.03 µM
  viability, T/C: 69.6%
Second compound 0.00316 µM, first compound 0.0949 µM
  viability, T/C: 52%
Second compound 0.00316 µM, first compound 0.3 µM
  viability, T/C: 59.1%
Second compound 0.00316 µM, first compound 0.949 µM
  viability, T/C: 36.6%
Second compound 0.00316 µM, first compound 3 µM
  viability, T/C: 25.4%
Second compound 0.01 µM, first compound 0.00949 µM
  viability, T/C: 63.4%
Second compound 0.01 µM, first compound 0.03 µM
  viability, T/C: 58.8%
Second compound 0.01 µM, first compound 0.0949 µM
  viability, T/C: 45.9%
Second compound 0.01 µM, first compound 0.3 µM
  viability, T/C: 42.1%
Second compound 0.01 µM, first compound 0.949 µM
  viability, T/C: 26.2%
Second compound 0.01 µM, first compound 3 µM
  viability, T/C: 18.3%
Second compound 0.0316 µM, first compound 0.00949 µM
  viability, T/C: 36.7%
Second compound 0.0316 µM, first compound 0.03 µM
  viability, T/C: 33.1%
Second compound 0.0316 µM, first compound 0.0949 µM
  viability, T/C: 19.7%
Second compound 0.0316 µM, first compound 0.3 µM
  viability, T/C: 15.4%
Second compound 0.0316 µM, first compound 0.949 µM
  viability, T/C: 7.92%
Second compound 0.0316 µM, first compound 3 µM
  viability, T/C: 4.93%
Second compound 0.1 µM, first compound 0.00949 µM
  viability, T/C: 12.6%
Second compound 0.1 µM, first compound 0.03 µM
  viability, T/C: 8.91%
Second compound 0.1 µM, first compound 0.0949 µM
  viability, T/C: 5.78%
Second compound 0.1 µM, first compound 0.3 µM
  viability, T/C: 3.64%
Second compound 0.1 µM, first compound 0.949 µM
  viability, T/C: 2.7%
Second compound 0.1 µM, first compound 3 µM
  viability, T/C: 0.27%
Second compound 0.316 µM, first compound 0.00949 µM
  viability, T/C: 3.5%
Second compound 0.316 µM, first compound 0.03 µM
  viability, T/C: 2.08%
Second compound 0.316 µM, first compound 0.0949 µM
  viability, T/C: 1.09%
Second compound 0.316 µM, first compound 0.3 µM
  viability, T/C: 0.45%
Second compound 0.316 µM, first compound 0.949 µM
  viability, T/C: 0.15%
Second compound 0.316 µM, first compound 3 µM
  viability, T/C: 0.17%
Second compound 1 µM, first compound 0.00949 µM
  viability, T/C: 0.66%
Second compound 1 µM, first compound 0.03 µM
  viability, T/C: 0.31%
Second compound 1 µM, first compound 0.0949 µM
  viability, T/C: 0.21%
Second compound 1 µM, first compound 0.3 µM
  viability, T/C: 0.16%
Second compound 1 µM, first compound 0.949 µM
  viability, T/C: 0.15%
Second compound 1 µM, first compound 3 µM
  viability, T/C: 0.2%

## C=CC(=O)N1CCN(c2nc(=O)n(-c3c(C)ccnc3C(C)C)c3nc(-c4c(O)cccc4F)c(F)cc23)C(C)C1 (centres undefined) + CC(Nc1ncnc2nc[nH]c12)c1cc2cccc(Cl)c2c(=O)n1-c1ccccc1
Second compound 0.0316 µM
  IC50: > 10 µM
Second compound 0.1 µM
  IC50: > 10 µM
Second compound 0.316 µM
  IC50: > 10 µM
Second compound 1 µM
  IC50: > 10 µM
Second compound 3.16 µM
  IC50: > 10 µM
Second compound 10 µM
  IC50: > 10 µM
Second compound 0.0316 µM, first compound 0.0316 µM
  viability, T/C: 92.8%
Second compound 0.0316 µM, first compound 0.1 µM
  viability, T/C: 112%
Second compound 0.0316 µM, first compound 0.316 µM
  viability, T/C: 121%
Second compound 0.0316 µM, first compound 1 µM
  viability, T/C: 119%
Second compound 0.0316 µM, first compound 3.16 µM
  viability, T/C: 118%
Second compound 0.0316 µM, first compound 10 µM
  viability, T/C: 129%
Second compound 0.1 µM, first compound 0.0316 µM
  viability, T/C: 104%
Second compound 0.1 µM, first compound 0.1 µM
  viability, T/C: 108%
Second compound 0.1 µM, first compound 0.316 µM
  viability, T/C: 110%
Second compound 0.1 µM, first compound 1 µM
  viability, T/C: 122%
Second compound 0.1 µM, first compound 3.16 µM
  viability, T/C: 132%
Second compound 0.1 µM, first compound 10 µM
  viability, T/C: 111%
Second compound 0.316 µM, first compound 0.0316 µM
  viability, T/C: 94.2%
Second compound 0.316 µM, first compound 0.1 µM
  viability, T/C: 106%
Second compound 0.316 µM, first compound 0.316 µM
  viability, T/C: 111%
Second compound 0.316 µM, first compound 1 µM
  viability, T/C: 118%
Second compound 0.316 µM, first compound 3.16 µM
  viability, T/C: 113%
Second compound 0.316 µM, first compound 10 µM
  viability, T/C: 128%
Second compound 1 µM, first compound 0.0316 µM
  viability, T/C: 91.1%
Second compound 1 µM, first compound 0.1 µM
  viability, T/C: 97.7%
Second compound 1 µM, first compound 0.316 µM
  viability, T/C: 99%
Second compound 1 µM, first compound 1 µM
  viability, T/C: 118%
Second compound 1 µM, first compound 3.16 µM
  viability, T/C: 110%
Second compound 1 µM, first compound 10 µM
  viability, T/C: 113%
Second compound 3.16 µM, first compound 0.0316 µM
  viability, T/C: 85%
Second compound 3.16 µM, first compound 0.1 µM
  viability, T/C: 79.2%
Second compound 3.16 µM, first compound 0.316 µM
  viability, T/C: 79.7%
Second compound 3.16 µM, first compound 1 µM
  viability, T/C: 88.1%
Second compound 3.16 µM, first compound 3.16 µM
  viability, T/C: 107%
Second compound 3.16 µM, first compound 10 µM
  viability, T/C: 105%
Second compound 10 µM, first compound 0.0316 µM
  viability, T/C: 63.7%
Second compound 10 µM, first compound 0.1 µM
  viability, T/C: 67%
Second compound 10 µM, first compound 0.316 µM
  viability, T/C: 62.3%
Second compound 10 µM, first compound 1 µM
  viability, T/C: 82.6%
Second compound 10 µM, first compound 3.16 µM
  viability, T/C: 85.3%
Second compound 10 µM, first compound 10 µM
  viability, T/C: 81%
